From patent US12509420B2, “Compound as a UBR box domain ligand” (AUTOTAC INC., priority 2020, dated 2025)
Peptide text beside a SMILES is read from it. * marks the point of attachment. Cbz = O=C(OCc1ccccc1)*

Legend:
UBR1 [1] = experiment: Inhibition of R-nsP4 degradation by in vitro transcription/translation method; format: biochemical; settings: compound 1 uM, 30° C. for 40 minutes, DHFR-Ub-R-nsP4 plasmid, compared to the control
Experimental: A TnT® Quick Coupled Transcription/Translation System kit was used to confirm the R-nsP4 expression of the compounds. After a pre-mix was made using Transcend Biotin-Lysyl-tRNA, methionine, bestatin, a TnTquick Master mix and a DHFR-Ub-R-nsP4 plasmid, the pre-mix was mixed with a compound (1 uM). After each sample was reacted at 30° C. for 40 minutes, a 5×SDS loading dye was added thereto. After the resulting mixture was reacted at 95° C. for 2 minutes, 5 uL was taken and aliquoted into each well of an acrylamide gel, and then an immunoblotting method was performed, and the experimental results are illustrated in [FIG. 2]. For an in vitro transcription/translation method, a representative experiment was schematized from three or more independent experiments.

UBR1 [2] = target: T1, UBR1 (Rattus norvegicus, UniProt A0A8I5ZK69); experiment: Inhibition of muscle cell actin degradation by immunoblotting (L6 cells); format: cell-based; settings: compound 5 uM alone, 24 hours, immunoblot
T1 construct: endogenous in cells; host or cells: L6 rat muscle-derived cells
T1 sequence (A0A8I5ZK69 1-1749): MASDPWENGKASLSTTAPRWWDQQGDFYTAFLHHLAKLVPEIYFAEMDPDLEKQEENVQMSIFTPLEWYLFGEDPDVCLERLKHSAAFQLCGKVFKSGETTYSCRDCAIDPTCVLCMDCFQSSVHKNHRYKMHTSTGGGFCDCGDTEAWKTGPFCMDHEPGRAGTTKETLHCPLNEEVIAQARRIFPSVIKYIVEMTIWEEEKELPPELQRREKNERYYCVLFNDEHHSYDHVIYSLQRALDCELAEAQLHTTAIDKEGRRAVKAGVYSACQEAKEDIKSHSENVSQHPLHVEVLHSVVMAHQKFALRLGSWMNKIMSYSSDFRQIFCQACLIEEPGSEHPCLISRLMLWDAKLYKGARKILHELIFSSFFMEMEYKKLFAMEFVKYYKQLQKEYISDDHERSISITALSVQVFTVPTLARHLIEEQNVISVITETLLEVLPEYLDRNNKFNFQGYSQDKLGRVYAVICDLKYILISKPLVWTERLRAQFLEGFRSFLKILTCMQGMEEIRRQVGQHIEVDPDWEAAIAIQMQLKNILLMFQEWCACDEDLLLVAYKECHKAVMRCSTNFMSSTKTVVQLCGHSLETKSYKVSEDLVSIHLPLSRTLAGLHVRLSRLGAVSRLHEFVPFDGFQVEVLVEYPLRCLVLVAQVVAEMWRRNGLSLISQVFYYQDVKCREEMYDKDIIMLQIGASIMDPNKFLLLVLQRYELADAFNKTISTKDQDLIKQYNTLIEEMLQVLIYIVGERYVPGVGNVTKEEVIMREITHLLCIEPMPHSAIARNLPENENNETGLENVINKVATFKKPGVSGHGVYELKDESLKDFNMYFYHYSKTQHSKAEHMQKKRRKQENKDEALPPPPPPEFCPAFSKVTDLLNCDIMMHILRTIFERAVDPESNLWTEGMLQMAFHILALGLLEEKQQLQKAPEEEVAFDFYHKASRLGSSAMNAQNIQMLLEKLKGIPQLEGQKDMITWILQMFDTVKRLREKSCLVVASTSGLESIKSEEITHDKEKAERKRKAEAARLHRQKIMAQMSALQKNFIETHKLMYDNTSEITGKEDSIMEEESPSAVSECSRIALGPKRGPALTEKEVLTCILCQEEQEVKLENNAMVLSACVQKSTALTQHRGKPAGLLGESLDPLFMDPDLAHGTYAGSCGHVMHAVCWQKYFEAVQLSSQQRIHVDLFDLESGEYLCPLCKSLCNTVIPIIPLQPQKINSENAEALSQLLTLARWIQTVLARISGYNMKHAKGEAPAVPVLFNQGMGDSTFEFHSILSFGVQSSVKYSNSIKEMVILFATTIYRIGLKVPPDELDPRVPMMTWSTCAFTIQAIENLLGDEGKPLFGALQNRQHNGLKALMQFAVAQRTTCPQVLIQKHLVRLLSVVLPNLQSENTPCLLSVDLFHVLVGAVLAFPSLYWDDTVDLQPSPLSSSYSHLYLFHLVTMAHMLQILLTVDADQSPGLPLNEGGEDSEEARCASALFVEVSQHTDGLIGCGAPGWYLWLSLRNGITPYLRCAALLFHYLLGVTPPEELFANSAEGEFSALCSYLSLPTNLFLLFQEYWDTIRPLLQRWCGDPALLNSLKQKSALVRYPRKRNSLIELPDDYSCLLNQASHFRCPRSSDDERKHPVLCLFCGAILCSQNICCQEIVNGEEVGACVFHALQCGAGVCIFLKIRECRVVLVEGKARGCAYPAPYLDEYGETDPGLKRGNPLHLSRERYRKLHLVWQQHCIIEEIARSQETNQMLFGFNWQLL
Experimental: To evaluate the actin degradation of compounds in muscle cells, a L6 cell line, which is a rat muscle-derived cell, was cultured using a DMEM medium containing 10% FBS and 1% streptomycin/penicillin in an incubator in which 5% carbon dioxide was maintained. In order to measure the UBR1 binding strength according to the treatment with a representative compound selected from the present compounds, cells were aliquoted into a 12-well plate. The cells were additionally cultured for 24 hours so as to be completely attached to the surface of the plate. […] To extract proteins from the collected cells, 50 uL of a lysis buffer (20 mM Tris, pH 7.4, 150 mM NaCl, 1% Triton-X-100, 2 mM NaF, 2 mM EDTA, 2 mM b-glycerophosphate, 5 mM sodium orthovanadate, 1 mM PMSF, leupeptin, aprotenin) was injected into each sample, and the cells were lysed. A sample buffer was added to each sample based on the measured total protein concentration, and the mixture was reacted at 100° C. for 5 minutes. After 5 uL was taken from the completely reacted sample and aliquoted into each well of an acrylamide gel, an immunoblotting method was performed, and the experimental results were illustrated in [FIG. 3]. For the immunoblotting method, a representative experiment was schematized from three or more independent experiments.

L6 cell line = experiment: Immunoblotting of muscle actin levels in L6 cells after MG132 treatment; format: cell-based, rat; settings: MG132 10 uM alone, 24 hours, immunoblot, compared to a control
Experimental: A L6 cell line, which is a rat muscle-derived cell, was cultured using a DMEM medium containing 10% FBS and 1% streptomycin/penicillin in an incubator in which 5% carbon dioxide was maintained, and cells were aliquoted into a 12-well plate after the culture. The cells were additionally cultured for 24 hours so as to be completely attached to the surface of the plate. To confirm whether MG132 increased UBR1 binding, cells were collected after treatment with MG132 (10 uM) alone for 24 hours. To extract proteins from the collected cells, 50 uL of a lysis buffer (20 mM Tris, pH 7.4, 150 mM NaCl, 1% Triton-X-100, 2 mM NaF, 2 mM EDTA, 2 mM b-glycerophosphate, 5 mM sodium orthovanadate, 1 mM PMSF, leupeptin, aprotenin) was injected into each sample, and the cells were lysed. A sample buffer was added to each sample based on the measured total protein concentration, and the mixture was reacted at 100° C. for 5 minutes. After 5 uL was taken from the completely reacted sample and aliquoted into each well of an acrylamide gel, an immunoblotting method was performed, and the experimental results are illustrated in [FIG. 1].
For the immunoblotting method, a representative experiment was schematized from three or more independent experiments.
Referring to FIG. 1, it was confirmed that the levels of ACTA1, ACTC1, and ACTG2 were increased by MG132 compared to a control. Further, it was confirmed that the levels of ACTA1 and ACTG2 were increased when a UBR protein was knocked down. That is, it could be confirmed that muscle actin is an Arg/N-degron pathway substrate.

COCCCCC(=O)Nc1cc(C(N)=O)ccc1Cl [Compound 2, 4-chloro-3-(5-methoxypentanamido)benzamide]
level of R-nsP4 (UBR1 [1]): increased | level of ACTA1 (UBR1 [2]): further increased

COCCCCC(=O)Nc1cc(C(C)=O)ccc1Cl [Compound 1, N-(5-acetyl-2-chlorophenyl)-5-methoxypentanamide]
level of R-nsP4 (UBR1 [1]): increased | level of ACTA1 (UBR1 [2]): further increased

CC(C)C[C@@H](C=O)NC(=O)[C@H](CC(C)C)NC(=O)[C@H](CC(C)C)NC(=O)OCc1ccccc1 [MG132] (Cbz-Leu-Leu-Leu-aldehyde)
level of ACTA1 (L6 cell line): increased | level of ACTC1 (L6 cell line): increased | level of ACTG2 (L6 cell line): increased
